Legend:
INS-1E cells [1] = assay: DNA-fragmentation ELISA in glucose/palmitate stressed cells; format: cell-based, rat; conditions: glucose/palmitate 24 hours; for reduction of cytosolic DNA-fragments: 20 μM
Description: (§1) The effects of the substance on cell viability, cell growth and specific apoptotic events such as caspases activity and DNA-fragmentation was monitored. INS-1E cell apoptosis was induced by treatment of cell cultures with toxic concentrations of glucose and palmitate for 24 hours. The substance of interest was added to the medium 1 hour prior to the addition of the toxic agents.
DNA-fragmentation is a comparatively late apoptotic event comprising storage of nucleosomal DNA-fragments as mono- and oligo nucleosomes in the cytoplasm. The incubation of INS1-E cells with high concentrations of glucose and palmitate for 24 hours leads to DNA breakdown and the accumulation of nucleosomal DNA fragments in the cytoplasm. The detectable amount of cytosolic nucleosomal DNA fragments was reduced by about 17%, when cells were treated with the apoptosis inducing agents in combination with 10 μM 4-AKP.
(§2) 10,000 Ins-1E cells were seeded per 96-well (black 96-well tissue culture plates, Falcon #353948) in 100 μl culture medium (RPMI 1640 containing 11 mM glucose, 5% FCS, 10 mM HEPES, 50 μM 2-mercaptoethanol, 1 mM MEM sodium pyruvate, 100 U/ml penicillin, 100 μg/ml streptomycin) and cultivated at 37° C., 5% CO2 in humidified atmosphere for 3 days. Media was changed to 100 μl starvation medium (culture medium with only 5 mM glucose, 1% FCS) and the cells were re-incubated for 1 day. Then media was exchanged to starvation medium containing test substances.
(§3) Apoptosis of Ins-1E cells was induced by addition of a combination of BSA coupled palmitate and glucose (pal/gluc) or a combination of cytokines (cyt) 1 hour after starting the treatment with test substances: pal/gluc: 0.3 mM palmitate:BSA (palmitic acid sodium salt:fatty acid free BSA 6:1) and 25 mM glucose. 10×cyt: 0.04 ng/ml IL-1β and 1 ng/ml IFNγ. The cells were further incubated with test substances and apoptotic inducer for 24 hours.
DNA-fragmentation is a late apoptotic event comprising storage of nucleosomal DNA-fragments as mono- and oligo nucleosomes in the cytoplasm. Their concentration was determined by ELISA (Cell death detection ELISA, Roche, cat. No. 1774425) according to the manufacturers guidelines.

INS-1E cells [2] = assay: Caspase activity assay in glucose/palmitate stressed cells; format: cell-based, rat
Description: as §1
Caspase activation is a characteristic of early apoptotic cells. The experiment was carried out as described above with the exception that the caspases activity assay was applied instead of the DNA-fragmentation assay (see Example 3 for details).
as §2, §3
Caspase activity is a characteristic of early apoptotic cells. Their activity was quantified by an enzymatic assay (homogeneous caspases assay, Roche, cat. No. 03 005 372 001). Caspase activity was measured 3 hours after addition of caspases substrate according to the manufacturers guidelines.

INS-1E cells [3] = assay: Ins-1E cell proliferation assay (BrdU incorporation); format: cell-based, rat
Description: The proliferation rate of Ins-1E cells was determined by monitoring DNA synthesis using a 5-bromo-2′-deoxyuridine (BrdU) incorporation assay. BrdU is a halogenated nucleotide analogue of thymidine that is incorporated into DNA during the S-phase of the cell cycle. Pulse-labeling of DNA with BrdU and subsequent immunohistochemical detection of labeled nuclei was used to study the rate of cell proliferation. The treatment of INS-1E cells with 4-Azakenpaullone for 24 hours increases BrdU incorporation of Ins-1E cells in a concentration dependent manner, reaching a maximum of about 1.4 fold between 5 μM and 10 μM 4-AKP.
The proliferation of Ins-1E insulinoma cells was determined by monitoring DNA synthesis as an indirect parameter of cell proliferation. The incorporation of the thymidine analogue 5-bromo-2′-deoxyuridine (BrdU) during replication into cellular DNA was used to label the DNA of mitotically active cells. After its incorporation into DNA, BrdU was detected by immunoassay.
as §2, with “substances and the cells were further incubated for 24 h. For the last 4 hours BrdU was added to reach a concentration of 10 μM. Cell proliferation ELISA (Cell Proliferation ELISA, BrdU, chemiluminescence, Roche, cat. No. 1669915) was performed according to the manufacturers guidelines.” for “substances.”

INS-1E cells [4] = assay: Glucolipotoxicity induced apoptosis of INS-1E cells (overall assessment); format: cell-based, rat; conditions: palmitate and glucose, 24 hours
Description: as §1
The effects of the test compounds on beta cell function were assessed using biological assays monitoring cellular metabolic activity as well as specific apoptotic events in Ins-1E cells.
as §2, §3

[5] = test system: cyclin-dependent kinases (CDKs); assay: KinaseProfiler biochemical kinase activity assays
Description: (§4) Experiments were carried out by Upstate Ltd. according to the protocols described in KinaseProfiler™ Assay Protocols Fall 2004 by Ustate Cell Signaling solutions.
(§5) Compounds 10c and e are structurally very similar to 1-Azakenpaullone and differ only by one substituent at position 9 of the D ring from their template 1-Azakenpaullone. […] These kinases were selected among about 250 different kinases based on their structural or functional similarity to GSK3, e.g. all available members of the CDK family were included in the survey because CDKs are most similar to GSK3 and several kinase inhibitors are known that inhibit members of both families. The direct comparison of different compounds in such an experiment provides information on the relative selectivity of the respective compounds.

[6] = test system: panel of 28 protein kinases; assay: KinaseProfiler biochemical kinase activity assays; conditions: tested in parallel with 1-Azakenpaullone
Description: as §4, §5

human GSK3 = assay: IC50 Profiler Express kinase assay; format: biochemical; conditions: 10-point curves in duplicate
Description: Experiments were carried out by Upstate Ltd. according to the protocols described in KinaseProfiler™ Assay Protocols, IC50 Profiler Express™ (10-point curves in duplicate) Fall 2004 by Ustate Cell Signaling solutions.

INS-1E cells [7] = assay: Cell number by CyQuant assay; format: cell-based, rat; conditions: 24 hours
Description: as §1
as §2, with “substances. […]” for “substances.”
Cell number was measured by staining of cellular DNA with CyQuant dye (CyQuant Cell Proliferation Assay Kit, Molecular Probes, cat. No. C-7026) which becomes fluorescent when bound to DNA. […]

INS-1E cells [8] = assay: Viability by Alamar Blue reduction under glucose/palmitate; format: cell-based, rat; conditions: 24 hours
Description: as §1
as §2, with “substances. […]” for “substances.”
Viability was assessed by mitochondric reduction of the non toxic dye Alamar Blue (Bioscource, cat. No. DAL1025). The dye was added to the cells 4 hours before read-out according to the manufacturers guidelines. Basal fluorescence was measured immediately to be subtracted from the fluorescence after 4 hours. […]

`COc1ccc2[nH]c3c(c2c1)CC(=O)Nc1cccnc1-3` [Compound 10a, 9-Methoxy-7,12-dihydro-pyrido[3′,2′:2,3]azepino[4,5-b]indole-6(5H)-one] was tested, and the “reduction of cytosolic DNA-fragments” value (INS-1E cells [1]) was 44%, the “reduction of caspase activity” value (INS-1E cells [2]; 20 μM) was 22% and the “proliferation of INS-1E cells (in words)” value (INS-1E cells [3]) was “small effect”. The “BrdU incorporation relative to untreated controls (maximum)” value (INS-1E cells [3]; at about 10 μM) was “about 1.2 fold” and the “effect on glucolipotoxicity induced apoptosis” value (“effect” for short) (INS-1E cells [4]) was “moderately prevents glucolipotoxicity induced apoptosis”.
With `O=C1Cc2c([nH]c3ccc(C(F)(F)F)cc23)-c2ncccc2N1` [Compound 10l, 9-Trifluoromethyl-7,12-dihydropyrido[3′,2′:2,3]azepino[4,5-b]indol-6(5H)-one] the “BrdU incorporation relative to untreated controls (maximum)” value (INS-1E cells [3]; maximum between 1 μM and 5 μM) was “about 1.4 fold” and the “effect” value (INS-1E cells [4]) was “significantly effects glucolipotoxicity induced apoptosis”.
With `O=C1Cc2c([nH]c3ccc(Cl)cc23)-c2ncccc2N1` [Compound 10e, 9-Chloro-7,12-dihydropyrido[3′,2′:2,3]azepino[4,5-b]indole-6(5H)-one] the “reduction of cytosolic DNA-fragments” value (INS-1E cells [1]) was 23%, the “reduction of caspase activity” value (INS-1E cells [2]; 20 μM) was 16% and the “inhibition of cyclin-dependent kinases (CDKs)” value [5] was “significantly inhibits”. For the same molecule, the “kinase selectivity / activity profile” value [6] was “selective kinase inhibitors”, the “BrdU incorporation relative to untreated controls (maximum)” value (INS-1E cells [3]; maximum between 1 μM and 10 μM) was “about 1.7 fold” and the “effect” value (INS-1E cells [4]) was “slightly prevents glucolipotoxicity induced apoptosis”.
In the case of `O=C1Cc2c([nH]c3ccc(Br)cc23)-c2ncccc2N1` [1-Azakenpaullone, reference compound], the “inhibition of human GSK3” value (human GSK3) was “potent inhibitor”.
With `O=C1Cc2c([nH]c3ccc(O)cc23)-c2ncccc2N1` [Compound 10d, 9-Hydroxy-7,12-dihydropyrido[3′,2′:2,3]azepino[4,5-b]indole-6(5H)-one] the “reduction of cytosolic DNA-fragments” value (INS-1E cells [1]) was 23%, the “reduction of caspase activity” value (INS-1E cells [2]; 20 μM) was 27% and the “effect” value (INS-1E cells [4]) was “slightly effects glucolipotoxicity induced apoptosis”.
`O=C1Cc2c([nH]c3ccc(Br)cc23)-c2cccnc2N1` [4-Azakenpaullone, reference compound] was tested, and the “reduction of cytosolic nucleosomal DNA fragments” value (INS-1E cells [1]; 10 μM) was “about 17%”, the “reduction of caspase activity” value (INS-1E cells [2]; 10 μM) was 18% and the “increase in cell-number relative to untreated controls” value (INS-1E cells [7]) was 1.2 fold. For the same molecule, the “viability of Ins-1E cells subjected to apoptosis inducing concentrations of glucose and palmitate” value (INS-1E cells [8]) was “slightly improves the viability”, the “BrdU incorporation relative to untreated controls (maximum)” value (INS-1E cells [3]; 24 hours, maximum between 5 μM and 10 μM) was “about 1.4 fold” and the “effect” value (INS-1E cells [4]) was “slightly antagonizes apoptotic processes”.

Source: patent publication US7968535B2, “Use of azapaullones for preventing and treating pancreatic autoimmune disorders” (Develogen Atkiengesellschaft, priority 2005, dated 2011)
